According to patent US4725601A, “Certain imidazo[1,2-a]pyridines useful in the treatment of ulcers” (Fujisawa Pharmaceutical Co., Ltd., priority 1985, dated 1988):

Experiments:
ethanol ulcer = experiment: Inhibition on ethanol ulcer; format: in vivo, male Spraque-Dawley rats; conditions: rat, oral, 30 minutes before absolute ethanol; for Inhibition %: 32 mg/kg, ulcer area vs control
Description: (A) Inhibition on ethanol ulcer
Five male Spraque-Dawley rats, aged 7 weeks and weighing about 200 g, were used per group for the study on ethanol ulcer after the fast for 24 hours.
Test compound was suspended in 0.1% methylcellulose aqueous solution, and the suspension (5 ml/kg) was orally given to each rat.
The control group was given a vehicle, i.e. 0.1% methylcellulose aqueous solution (5 ml/kg), alone in the same way.
Absolute ethanol (5 ml/kg) was orally administered 30 minutes after dosing with test compound, and one hour later, the rats were sacrificed and their stomachs were removed. The area of ulcers of each rat was measured. The mean area […] in the medicated group was compared with that in the control group.

stress ulcer = experiment: Inhibition on stress ulcer; format: in vivo, Sprague-Dawley rats; conditions: stress ulcer (immobilization, water bath 22° C., seven hours), rat, oral; for Inhibition %: 32 mg/kg, ulcer area vs control
Description: (B) Inhibition on stress ulcer
Five Sprague-Dawley rats weighing about 200 g were used per group. Each animal was immobilized in a small cage and put in a water bath allowing to respire. The temperature of the water bath kept at 22° C. The test compound was administered orally just before the immobilization. Seven hours later, the animals were sacrificed and their stomachs were removed. The stomach was then fixed with 2% formalin. The area of ulcers was measured for each animal. The mean area (mm^2) in the medicated animals was compared with that in the control animals.

With `C#CCOCc1c(C)nc2c(OCc3ccccc3C)cccn12` [Test Compound (1), 8-(2-Methylbenzyloxy)-3-(2-propynyloxymethyl)-2-methylimidazo[1,2-a]pyridine] as the molecule, how does the Inhibition % (ethanol ulcer) read?
The Inhibition % was 94.4%.

What about the ED50 (ethanol ulcer) of the same molecule?
Its ED50 is 1.1 mg/kg.

And the ED50 (stress ulcer; 7 h)?
The ED50 was 0.15 mg/kg.

And the Inhibition % (stress ulcer)?
The Inhibition % was 100%.

Which Inhibition % (ethanol ulcer) does the source give for `C#CCOCc1c(C)nc2c(OCc3ccccc3Cl)cccn12` [Test Compound (2), 8-(2-Chlorobenzyloxy)-3-(2-propynyloxymethyl)-2-methylimidazo[1,2-a]pyridine] here?
Its Inhibition % is 98.2%.

What about the Inhibition % (stress ulcer) of the same molecule?
The Inhibition % was 100%.

What does the source list for `C#CCc1c(C)nc2c(OCc3ccccc3C)cccn12` [Test Compound (3), 8-(2-Methylbenzyloxy)-3-(2-propynyl)-2-methylimidazo[1,2-a]pyridine]?
Inhibition % (ethanol ulcer): 91.8%; Inhibition % (stress ulcer): 100%
